Source: ChEMBL document CHEMBL2016449, “Discovery of a novel chemotype of potent human ENaC blockers using a bioisostere approach. Part 2: α-Branched quaternary amines” (Bioorg Med Chem Lett, 2012)

Tests used:
[1] = Blockade of human ENaC expressed in HBE cells by short-circuit current assay; type: cell-based
[2] = test system: Cavia porcellus; assay: Ratio of amiloride ED50 to compound ED50 for blockade of ENaC in intratracheally dosed Dunkin Hartley guinea pig; type: functional
[3] = Blockade of guinea pig ENaC expressed in FRT cells by short-circuit current assay; type: cell-based; conditions: Cavia porcellus
[4] = test system: Cavia porcellus; assay: Blockade of ENaC in intratracheally dosed Dunkin Hartley guinea pig tracheal potential difference model after 1 hr; type: functional; conditions: inhaled or nasal
[5] = test system: BE; assay: Ratio of amiloride IC50 to compound IC50 for human ENaC expressed in HBE cells; type: cell-based

| SMILES | IC50 [1] [nM] | also measured |
| --- | --- | --- |
| CCC[C@H](CNC(=O)c1nc(Cl)c(N)nc1N)[N+](C)(C)C | 290 |  |
| CC[C@@H](CNC(=O)c1nc(Cl)c(N)nc1N)[N+](C)(C)C | 750 |  |
| CC[C@H](CNC(=O)c1nc(Cl)c(N)nc1N)[N+](C)(C)C | 510 |  |
| CCC[C@@H](CNC(=O)c1nc(Cl)c(N)nc1N)[N+](C)(C)C.[I-] | 30 | Ratio ED50 [2]: 16; IC50 [3]: 30 nM; ED50 [4]: 1 µg/kg; Ratio IC50 [5]: 10 |
| N=C(N)NC(=O)c1nc(Cl)c(N)nc1N [AMILORIDE] | 220 | IC50 [3]: 540 nM; ED50 [4]: 16 µg/kg |
| C[C@@H](CNC(=O)c1nc(Cl)c(N)nc1N)[N+](C)(C)C | 8090 |  |
| N/C(=N\C(=O)c1nc(Cl)c(N)nc1N)NCCCCc1ccc(OCC(O)CO)cc1 (configuration not stated) [552-02 FREE BASE] | 2 | IC50 [3]: 4 nM; ED50 [4]: 0.2 µg/kg |
| C[N+](C)(C)[C@H](CNC(=O)c1nc(Cl)c(N)nc1N)Cc1ccccc1 | 170 |  |
| CCC[C@@H](CNC(=O)c1nc(Cl)c(N)nc1N)[N+](C)(C)CCCc1ccc(OC)cc1 | 4 |  |
| CC(C)(CNC(=O)c1nc(Cl)c(N)nc1N)[N+](C)(C)C | > 30000 |  |
| CC(C)[C@@H](CNC(=O)c1nc(Cl)c(N)nc1N)[N+](C)(C)C | 2390 |  |
| CCCC[C@@H](CNC(=O)c1nc(Cl)c(N)nc1N)[N+](C)(C)C | 59 |  |
| CC(C)[C@H](CNC(=O)c1nc(Cl)c(N)nc1N)[N+](C)(C)C | 19500 |  |
| C[C@H](CNC(=O)c1nc(Cl)c(N)nc1N)[N+](C)(C)C | > 10000 |  |
